Measured values taken from patent US20230048888A1, “USE OF TRIAZOLOTRIAZINE DERIVATIVE IN TREATMENT OF DISEASES” (ZHEJIANG VIMGREEN PHARMACEUTICALS, LTD., priority 2019, published 2023).

Tests used:
adenosine receptors A2A = target: T1, adenosine receptors A2A (Homo sapiens, UniProt P29274); assay: TR-FRET-based cAMP accumulation assay in hADORA2A-HEK293 cells; type: cell-based; conditions: NECA at EC80, hADORA2A-HEK293, read-out: A2AR activity (IC50)
T1 construct: expressed in transfected cells; host or cells: HEK293 (hADORA2A-HEK293)
T1 sequence (P29274 whole entry): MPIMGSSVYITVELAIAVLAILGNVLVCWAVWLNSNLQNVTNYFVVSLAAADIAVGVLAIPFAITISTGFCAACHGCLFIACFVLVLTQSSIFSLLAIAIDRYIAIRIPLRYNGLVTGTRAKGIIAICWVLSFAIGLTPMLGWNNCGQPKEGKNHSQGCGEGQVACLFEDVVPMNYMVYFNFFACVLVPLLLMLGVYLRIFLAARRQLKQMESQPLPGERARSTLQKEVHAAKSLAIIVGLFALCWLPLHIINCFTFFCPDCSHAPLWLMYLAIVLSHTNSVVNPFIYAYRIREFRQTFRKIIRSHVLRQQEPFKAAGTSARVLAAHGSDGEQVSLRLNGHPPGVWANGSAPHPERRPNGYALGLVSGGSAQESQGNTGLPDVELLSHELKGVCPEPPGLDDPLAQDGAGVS
Method: The inhibitory effects of the test compounds on the adenosine receptors A2A were evaluated by TR-FRET-based cAMP accumulation assay. The method included, in HEK293 cells (hADORA2A-HEK293) expressing A2AR, the production of cAMP stimulated by NECA and the inhibitory effect of A2A receptor antagonists on cAMP. All cells were cultured in a complete medium at 37° C. in the presence of 5% CO2. After being digested with trypsin, the cells were collected by centrifugation at 200 g for 5 minutes. The cells were resuspended in a fresh complete medium, and then the cell viability was counted by a trypan blue exclusion method. […] The cells were diluted with Hank's buffer solution containing HEPES (5 mM), BSA stabilizer (0.1%) and Rolipram (10 μM), then added to a 384-well white non-transparent plate (cells/well, 10 μl/well), and incubated with the test compound at an appropriate concentration (11 concentrations) for 20 minutes at room temperature. Then, the A2A receptor agonist NECA (final concentration=EC80, which was determined in the same experiment performed earlier) was added to the sample, and the sample was incubated again at 37° C. for 30 minutes.
An inhibition rate (%) was calculated according to the following formula, and an IC50 value was calculated from a concentration-inhibition (%) curve after log conversion.
A curve corresponding to the dose was fitted by using XLfit software and the IC50 was determined.

[1] = target: T2, Human adenosine ADORA1 receptor membrane protein (Homo sapiens, UniProt P30542); assay: Radioisotope ligand competitive binding, ADORA1 ([3H] DPCPX); conditions: ADORA1 (IC50, nM, n = 3), binding test
T2 construct: purchased PerkinElmer ES-010-M400UA
T2 sequence (P30542 1-326): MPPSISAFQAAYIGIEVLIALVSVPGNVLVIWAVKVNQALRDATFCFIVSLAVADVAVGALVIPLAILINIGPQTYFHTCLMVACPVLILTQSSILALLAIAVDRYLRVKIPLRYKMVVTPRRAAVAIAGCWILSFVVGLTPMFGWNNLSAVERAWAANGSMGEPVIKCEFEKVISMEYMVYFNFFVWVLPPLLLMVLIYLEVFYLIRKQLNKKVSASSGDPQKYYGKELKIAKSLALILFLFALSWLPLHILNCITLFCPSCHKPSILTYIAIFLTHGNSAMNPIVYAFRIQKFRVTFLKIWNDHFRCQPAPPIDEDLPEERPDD
Method: ADORA1: 25 mM HEPES pH 7.4, 5 mM MgCl2, 1 mM CaCl2, 100 mM NaCl
4) Preparation of compounds: the test compounds and the reference compounds were separately diluted with 100% DMSO.
1 μL of a sample to be tested and 1 μL of a reference compound were added to a 96-well plate in sequence. […] 100 μL of cells and 100 μL of isotopes were added to all experimental wells. The 96-well plate was sealed; ADORA1, ADORA2B, and ADORA3 were incubated for 1 hour on a shaker (300 rpm) at room temperature (22° C.); and ADORA2A was incubated for 2 hours on a shaker (300 rpm) at room temperature (22° C.). At the same time, a GF/C filter plate was soaked with ADORA1, ADORA2A, ADORA2B, and ADORA3 by using 0.3% PEI for at least 30 minutes at room temperature, at 50 μL/well. After the incubation was completed, the incubated reaction system was collected onto the GF/C filter plate with a Harvester, washed 4 times and then dried for 0.5 hours in an oven at 50° C. The bottom of the dried GF/C filter plate was sealed with a film, 50 μL of scintillation solution was added to each well, which was then sealed with a Top-seal-A film. With Microbeta readings, the data was analyzed by GraphPad Prism 5.0.
% Inhibition=100×(1−(Sample_raw value−Low control_Average)/(High control_Average−Low control_Average))
The data was fitted with “log(inhibitor) vs response-variable slope” in GraphPad Prism 5.0 to obtain IC50.

adenosine receptor A3 = target: T3, adenosine receptor A3 (Homo sapiens, UniProt P0DMS8); assay: cAMP experiment on Gi-coupled adenosine receptor A3 (CHO); type: cell-based; conditions: cAMP accumulation; read-out: IC50 (nM) CHO cells (ADORA3)
T3 construct: host or cells: CHO
T3 sequence (P0DMS8 1-318): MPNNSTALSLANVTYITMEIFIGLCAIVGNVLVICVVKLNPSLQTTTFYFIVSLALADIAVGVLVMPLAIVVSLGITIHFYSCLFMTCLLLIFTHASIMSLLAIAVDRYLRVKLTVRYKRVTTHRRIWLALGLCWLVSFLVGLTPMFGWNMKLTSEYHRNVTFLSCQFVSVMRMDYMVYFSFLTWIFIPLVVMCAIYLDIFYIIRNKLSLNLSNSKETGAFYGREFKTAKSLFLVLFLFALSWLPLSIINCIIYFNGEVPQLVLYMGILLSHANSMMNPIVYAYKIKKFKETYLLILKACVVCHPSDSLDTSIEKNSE
Method: Similarly, a CHO cell strain stably expressing the adenosine receptor A3 was taken as a study object (PerkinElmer, ES-012-C) for the experiment. The IC50 value of the compound was calculated.

| IC50 (adenosine receptors A2A) [µM] | IC50 (adenosine receptor A3) [nM] | SMILES | IC50 ([1]; Table 10 (IC50)) [nM] | IC50 ([1]; Table 11) [nM] |
| --- | --- | --- | --- | --- |
| 0.0106 | 458 | COCCNc1ccc(CCNc2nc(N)n3nc(-c4ccco4)nc3n2)cc1 [Compound 27, 2-(furan-2-yl)-N5-(4-((2-methoxyethyl)amino)phenethyl)-[1,2,4]triazolo[1,5-a][1,3,5]triazine-5,7-diamine] |  |  |
| 0.00966 | 928 | Cn1nnc(-c2ccc(CCNc3nc(N)n4nc(-c5ccco5)nc4n3)cc2)n1 [Compound 40, N5-(4-(2-methyl-2H-tetrazol-5-yl)phenethyl)-2-(furan-2-yl)-[1,2,4]triazolo[1,5-a][1,3,5]triazine-5,7-diamine] | 552 ± 283 | 441 |
|  | 2080 | CCn1c(=O)c2c(nc(/C=C/c3ccc(OC)c(OC)c3)n2C)n(CC)c1=O [Istradefylline, reference compound] |  |  |

| SMILES | IC50 (adenosine receptors A2A) [µM] | IC50 (adenosine receptor A3) [nM] | IC50 ([1]; Table 10 (IC50)) [nM] | IC50 ([1]; Table 11) [nM] |
| --- | --- | --- | --- | --- |
| Nc1nc(NCCc2ccc(NC3COC3)cc2)nc2nc(-c3ccco3)nn12 [Compound 22, 2-(furan-2-yl)-N5-(4-(oxetan-3-ylamino)phenethyl)-[1,2,4]triazolo[1,5-a][1,3,5]triazine-5,7-diamine] | 0.00707 | 585 | 821 ± 54.2 | 564 |
